Data set [1] has as its target T1, Cholinesterase (Equus caballus, UniProt P81908). Kind of data set: Inhibition of equine serum BuChE. It counts as cell-free.
Another data set concerns the target Acetylcholinesterase (Electrophorus electricus, UniProt O42275). Kind of data set: Inhibition of electric eel AChE at 100 uM.
Data set [2] has as its target Acetylcholinesterase (Homo sapiens) (UniProt P22303). Nature of the data set: Inhibition of human recombinant AChE at 200 uM.
The nature of data set [3]: Permeability of compound by PAMPA-BBB assay. To be noted: read-out: permeability. It counts as ADME. (In PAMPA a lipid-coated filter parts donor from acceptor wells.)
Data set [4] has as its target Cholinesterase (Homo sapiens, UniProt P06276). Kind of data set: Inhibition of human BuChE at 10 uM.
The target of data set [5] is T1, Cholinesterase. Kind of data set: Mixed inhibition of equine serum BChE using butyrylthiocholine iodide as substrate. It counts as cell-free.

Molecules are shown by their SMILES.

T1 sequence (P81908 whole entry): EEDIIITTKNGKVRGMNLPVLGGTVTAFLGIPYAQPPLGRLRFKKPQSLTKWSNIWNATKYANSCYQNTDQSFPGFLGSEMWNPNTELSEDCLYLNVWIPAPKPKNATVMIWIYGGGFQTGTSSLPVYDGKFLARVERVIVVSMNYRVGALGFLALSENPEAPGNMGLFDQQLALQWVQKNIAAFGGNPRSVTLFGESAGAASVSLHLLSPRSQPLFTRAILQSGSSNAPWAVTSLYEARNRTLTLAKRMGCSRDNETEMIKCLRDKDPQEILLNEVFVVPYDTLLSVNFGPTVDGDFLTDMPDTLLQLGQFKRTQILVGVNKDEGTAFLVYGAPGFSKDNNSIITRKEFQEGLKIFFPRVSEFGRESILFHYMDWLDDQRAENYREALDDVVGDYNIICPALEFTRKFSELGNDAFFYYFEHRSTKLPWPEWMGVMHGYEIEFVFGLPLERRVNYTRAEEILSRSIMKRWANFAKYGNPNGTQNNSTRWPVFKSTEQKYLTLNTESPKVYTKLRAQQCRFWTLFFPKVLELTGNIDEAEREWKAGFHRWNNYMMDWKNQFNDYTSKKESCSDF
Chain of Acetylcholinesterase (O42275 whole entry): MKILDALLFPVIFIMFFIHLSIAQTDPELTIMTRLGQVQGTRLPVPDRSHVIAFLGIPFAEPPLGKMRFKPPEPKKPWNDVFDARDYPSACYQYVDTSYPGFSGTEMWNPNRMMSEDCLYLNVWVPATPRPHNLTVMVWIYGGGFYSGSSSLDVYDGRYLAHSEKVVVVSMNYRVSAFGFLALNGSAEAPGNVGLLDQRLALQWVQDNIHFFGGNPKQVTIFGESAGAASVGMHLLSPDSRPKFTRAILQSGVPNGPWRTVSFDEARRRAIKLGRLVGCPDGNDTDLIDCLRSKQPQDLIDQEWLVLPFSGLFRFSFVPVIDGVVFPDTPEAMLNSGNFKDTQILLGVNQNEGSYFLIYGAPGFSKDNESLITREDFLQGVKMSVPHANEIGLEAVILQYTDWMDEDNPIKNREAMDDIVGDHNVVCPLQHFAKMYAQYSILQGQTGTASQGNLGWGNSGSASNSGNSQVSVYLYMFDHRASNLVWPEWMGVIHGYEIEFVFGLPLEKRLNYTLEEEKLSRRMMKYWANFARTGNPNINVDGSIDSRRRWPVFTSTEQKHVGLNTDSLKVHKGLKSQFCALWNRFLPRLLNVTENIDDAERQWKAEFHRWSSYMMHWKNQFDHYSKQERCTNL
Chain of Cholinesterase (Homo sapiens, UniProt P06276) (P06276 whole entry): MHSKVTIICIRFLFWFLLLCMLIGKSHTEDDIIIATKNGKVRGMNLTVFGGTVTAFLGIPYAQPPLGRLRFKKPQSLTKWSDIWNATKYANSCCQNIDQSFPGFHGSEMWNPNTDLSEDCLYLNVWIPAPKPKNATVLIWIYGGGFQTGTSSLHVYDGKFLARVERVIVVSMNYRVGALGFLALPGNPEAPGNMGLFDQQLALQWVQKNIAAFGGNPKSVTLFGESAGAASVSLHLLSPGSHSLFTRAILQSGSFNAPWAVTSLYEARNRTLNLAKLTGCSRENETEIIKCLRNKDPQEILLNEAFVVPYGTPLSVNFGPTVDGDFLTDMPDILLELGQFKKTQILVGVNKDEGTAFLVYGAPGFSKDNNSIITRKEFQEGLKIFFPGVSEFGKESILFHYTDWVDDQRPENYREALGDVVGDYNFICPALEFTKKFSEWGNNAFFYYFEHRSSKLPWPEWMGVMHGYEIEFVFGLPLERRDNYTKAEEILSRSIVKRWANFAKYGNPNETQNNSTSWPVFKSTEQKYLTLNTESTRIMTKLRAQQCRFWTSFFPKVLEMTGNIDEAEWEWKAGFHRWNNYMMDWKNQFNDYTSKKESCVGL
Chain of Acetylcholinesterase (Homo sapiens) (P22303 whole entry): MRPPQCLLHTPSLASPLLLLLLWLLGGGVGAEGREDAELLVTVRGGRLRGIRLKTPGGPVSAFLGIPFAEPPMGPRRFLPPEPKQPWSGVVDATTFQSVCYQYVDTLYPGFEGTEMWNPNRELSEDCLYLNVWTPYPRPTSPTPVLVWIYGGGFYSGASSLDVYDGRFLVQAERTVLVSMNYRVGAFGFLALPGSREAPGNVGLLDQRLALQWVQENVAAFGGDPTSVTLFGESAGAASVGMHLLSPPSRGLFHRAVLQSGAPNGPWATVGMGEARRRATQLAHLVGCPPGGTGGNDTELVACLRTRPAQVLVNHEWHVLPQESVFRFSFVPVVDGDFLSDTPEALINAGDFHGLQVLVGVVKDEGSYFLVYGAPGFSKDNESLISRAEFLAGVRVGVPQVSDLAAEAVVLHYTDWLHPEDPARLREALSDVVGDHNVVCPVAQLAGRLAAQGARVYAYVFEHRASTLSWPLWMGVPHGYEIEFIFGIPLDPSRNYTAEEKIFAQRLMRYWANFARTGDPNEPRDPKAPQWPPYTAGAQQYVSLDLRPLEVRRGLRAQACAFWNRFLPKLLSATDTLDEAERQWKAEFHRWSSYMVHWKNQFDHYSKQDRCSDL

As a reminder, the IC50 is the concentration at which inhibition is half-maximal. Lower therefore signals greater potency in that assay. With `COc1ccccc1C1CCN(Cc2c(C)[nH]c3ccccc23)CC1`, the results for the IC50 on Cholinesterase [1] and on Acetylcholinesterase were 12.3 µM and “Not Active”, respectively.

A word on the inhibition: it is how much of the control response was suppressed. For orientation: Ki means the equilibrium dissociation constant of an inhibitor or competing ligand from its target. A higher Ki goes with a looser hold on the target. As for `COc1ccc(-c2cc(C(=O)N3CCN(Cc4ccccc4)CC3)c3ccccc3n2)cc1`, the inhibition in data set [2] came to 8%. Further, in data set [3], the Papp came out at 1.28 ×10⁻⁶ cm/s. In addition, the results for the IC50 against Cholinesterase [1], against Acetylcholinesterase and against Cholinesterase [4] were 3.3 µM, “Not Active” and 2.4 µM, respectively. Further, on Cholinesterase [5], the inhibition constant (Ki) worked out at 5.2 µM.

These data come from ChEMBL document CHEMBL4699569, “Rapid discovery of a selective butyrylcholinesterase inhibitor using structure-based virtual screening” (Bioorg Med Chem Lett, 2020).
